Literature values, collected in patent publication US20100048608A1, “Histone Deacetylase Inhibitors for the Treatment of Ocular Neovascular or Edematous Disorders and Diseases” (ALCON, INC., priority 2002, published 2010).

Columns and labels:
[1] = system: corneal neovascularization; conditions: in combination with a beta cyclodextrin; Li et al. 1991
cancer cell [2] = conditions: Munster et al. 2001
tumors = conditions: Butler et al. 2000
cancer cell [3] = conditions: Butler et al. 2002
[4] = phase I clinical trials; Kelly et al. 2001

C[C@]12CCC(=O)C=C1CC[C@@H]1[C@@H]2[C@@H](O)C[C@@]2(C)[C@H]1CC[C@]2(O)C(=O)CO [hydrocortisone]
inhibition of corneal neovascularization [1]: inhibit corneal neovascularization

C[C@]12CC[C@@H](O)C[C@H]1CC[C@@H]1[C@@H]2CC[C@@]2(C)[C@H]1CC[C@]2(O)C(=O)CO [tetrahydrocortisol-S]
inhibition of corneal neovascularization [1]: inhibit corneal neovascularization

C[C@@H]1C[C@H]2[C@@H]3C[C@H](F)C4=CC(=O)CC[C@]4(C)C3=CC[C@]2(C)[C@@]1(O)C(=O)CO [U-72,745G]
inhibition of corneal neovascularization [1]: inhibit corneal neovascularization

O=C(CCCCCCC(=O)Nc1ccccc1)NO [SAHA, suberoylanilide hydroxamic acid]
induction of cancer cell differentiation (cancer cell [2]): potent inducer of cancer cell differentiation | effect on tumors in animal models (tumors): shrink tumors in animal models | cancer cell growth in vitro (cancer cell [3]): arrest cancer cell growth in vitro | dose-limiting toxicity [4]: almost no dose-limiting toxicity | suppression of white blood cell production [4]: no suppression of white blood cell production
